Experimental data published in BindingDB's records for doi:10.1111/cbdd.12198 (Shanghai Institute of Pharmaceutical Industry, 2014).

What was measured:
[1] = biological target: Serine/threonine-protein kinase B-raf (Homo sapiens, UniProt P15056); assay: Biochemical Assay; conditions: pH 7.5; 25 °C
Description: (§1) Compounds were prepared in DMSO at 10mmol/L and serially diluted in a 96-well plate as the source plate. The intermediate plate consists of 4µL from the source plate mixed with 96µL of 1× kinase buffer (50mmol/L HEPES, pH 7.5; 10mmol/L MgCl2; 1mmol/L EGTA; 0.01% Brij-35). Of 2.5µL was transferred to a 384-well assay plate in duplicates. To the assay plate, 5µL of BRAF 7nmol/L or BRAF V600E 0.7nmol/L, 2.5µL of substrate solution containing Fluorescein-MAP2K1 0.8µmol/L and ATP (for BRAF 2µmol/L, for BRAF V600E 6µmol/L) were added and the assay plate was incubated with the compounds for 1 h at room temperature. The reaction was stopped with the addition of 10µL of detection solution (antibody 4nmol/L and EDTA 20mmol/L in antibody dilution buffer) to each well of the assay plate.

[2] = biological target: Serine/threonine-protein kinase B-raf [V600E] (Homo sapiens, UniProt P15056, V600E); assay: Biochemical Assay; conditions: pH 7.5; 25 °C
Serine/threonine-protein kinase B-raf [V600E], sequence (P15056 2-766 V600E limits assumed): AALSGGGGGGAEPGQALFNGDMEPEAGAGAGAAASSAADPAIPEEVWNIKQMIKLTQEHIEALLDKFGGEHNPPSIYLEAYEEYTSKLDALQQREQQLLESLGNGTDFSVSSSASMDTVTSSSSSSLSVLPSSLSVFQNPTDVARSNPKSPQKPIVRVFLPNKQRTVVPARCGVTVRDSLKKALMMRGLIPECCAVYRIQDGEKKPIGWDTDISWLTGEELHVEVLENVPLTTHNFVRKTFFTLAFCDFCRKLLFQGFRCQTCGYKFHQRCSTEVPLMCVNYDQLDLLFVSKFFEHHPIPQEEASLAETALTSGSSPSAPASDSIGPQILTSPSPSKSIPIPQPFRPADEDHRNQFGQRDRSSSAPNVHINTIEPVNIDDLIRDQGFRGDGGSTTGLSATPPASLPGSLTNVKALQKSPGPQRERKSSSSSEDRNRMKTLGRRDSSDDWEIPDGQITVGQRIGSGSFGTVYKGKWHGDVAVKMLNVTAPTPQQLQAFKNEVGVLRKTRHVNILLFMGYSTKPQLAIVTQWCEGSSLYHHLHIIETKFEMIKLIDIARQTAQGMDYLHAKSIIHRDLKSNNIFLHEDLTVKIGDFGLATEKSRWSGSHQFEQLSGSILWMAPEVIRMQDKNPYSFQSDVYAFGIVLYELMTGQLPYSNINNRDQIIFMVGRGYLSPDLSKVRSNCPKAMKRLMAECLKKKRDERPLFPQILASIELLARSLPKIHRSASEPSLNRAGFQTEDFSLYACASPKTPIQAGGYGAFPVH
Description: as §1

Serine/threonine-protein kinase B-raf, sequence (P15056 whole entry): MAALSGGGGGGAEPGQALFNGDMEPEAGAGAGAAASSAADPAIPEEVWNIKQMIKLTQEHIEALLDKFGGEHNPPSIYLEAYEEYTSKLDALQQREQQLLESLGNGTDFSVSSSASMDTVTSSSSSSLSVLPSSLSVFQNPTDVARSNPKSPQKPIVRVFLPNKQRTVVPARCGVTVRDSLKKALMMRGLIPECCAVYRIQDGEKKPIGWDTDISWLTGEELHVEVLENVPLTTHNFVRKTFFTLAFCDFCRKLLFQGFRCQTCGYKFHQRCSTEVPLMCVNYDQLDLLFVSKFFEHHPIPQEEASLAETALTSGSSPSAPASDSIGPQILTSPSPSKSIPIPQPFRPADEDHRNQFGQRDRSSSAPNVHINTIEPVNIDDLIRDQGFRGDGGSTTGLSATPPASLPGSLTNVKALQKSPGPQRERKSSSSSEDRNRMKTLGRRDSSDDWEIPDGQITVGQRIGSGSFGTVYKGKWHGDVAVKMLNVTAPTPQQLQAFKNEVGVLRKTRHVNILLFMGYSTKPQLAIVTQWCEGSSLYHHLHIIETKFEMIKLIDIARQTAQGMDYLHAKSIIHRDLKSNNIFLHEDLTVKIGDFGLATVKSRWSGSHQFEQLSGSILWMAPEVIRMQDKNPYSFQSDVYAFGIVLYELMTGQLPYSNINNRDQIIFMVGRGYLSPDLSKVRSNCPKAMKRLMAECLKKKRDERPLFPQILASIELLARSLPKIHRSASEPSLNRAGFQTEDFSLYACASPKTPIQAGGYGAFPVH

Cc1nc(Cl)cc(Nc2cccc(NC(=O)Nc3ccc(Cl)c(C(F)(F)F)c3)c2)n1 [1-(3-(6-Chloro-2-methylpyrimidin-4-ylamino)phenyl)-3-(4-chloro-3-(trifluoromethyl)phenyl)urea (Compound 1)]
IC50 [1]: 722 nM
IC50 [2]: 298 nM

Cc1nc(Nc2cccc(NC(=O)Nc3ccc(F)c(Cl)c3)c2)cc(N2CCOCC2)n1 [1-(3-Chloro-4-fluorophenyl)-3-(3-(2-methyl-6-morpholinopyrimidin-4-ylamino)phenyl)urea (Compound 2)]
IC50 [1]: 1070 nM
IC50 [2]: 626 nM

Cc1nc(N2CCOCC2)cc(N(C)c2cccc(NC(=O)Nc3ccc(F)c(Cl)c3)c2)n1 [1-(3-Chloro-4-fluorophenyl)-3-(3-(methyl (2-methyl-6-morpholinopyrimidin-4-yl)amino)phenyl)urea (Compound 5)]
IC50 [1]: 366 nM
IC50 [2]: 232 nM

Cc1nc(Nc2cccc(NC(=O)Nc3ccc(Cl)c(C(F)(F)F)c3)c2)cc(N2CCN(C)CC2)n1 [1-(4-Chloro-3-(trifluoromethyl)phenyl)-3-(3-(2-methyl-6-(4-methylpiperazin-1-yl)pyrimidin-4-ylamino)phenyl)urea (Compound 4)]
IC50 [1]: > 10000 nM
IC50 [2]: 7170 nM

Cc1nc(Nc2cccc(NC(=O)Nc3ccc(Cl)c(C(F)(F)F)c3)c2)cc(N2CCOCC2)n1 [1-(4-Chloro-3-(trifluoromethyl)phenyl)-3-(3-(2-methyl-6-morpholinopyrimidin-4-ylamino)phenyl) urea (Compound 3)]
IC50 [1]: 271 nM
IC50 [2]: 142 nM

Cc1nc(N2CCN(C)CC2)cc(N(C)c2cccc(NC(=O)Nc3ccc(Cl)c(C(F)(F)F)c3)c2)n1 [1-(4-Chloro-3-(trifluoromethyl)phenyl)-3-(3-(methyl (2-methyl-6-(4-methylpiperazin-1-yl)pyrimidin-4-yl)amino)phenyl)urea (Compound 7)]
IC50 [1]: 5280 nM
IC50 [2]: 4990 nM

Cc1nc(N2CCOCC2)cc(N(C)c2cccc(NC(=O)Nc3ccc(Cl)c(C(F)(F)F)c3)c2)n1 [1-(4-Chloro-3-(trifluoromethyl)phenyl)-3-(3-(methyl (2-methyl-6-morpholinopyrimidin-4-yl)amino)phenyl)urea (Compound 6)]
IC50 [1]: 1370 nM
IC50 [2]: 1370 nM
